Assay results published in publication PMC12616683, “In Vivo Atlas of Neuroprotective Cyclic Dipeptides Derived from Food Gelatin Using Peptidomics and Feature-Based Molecular Networking” (Journal of Agricultural and Food Chemistry, 2025).
Peptide text beside a SMILES is read from it.

Test: FBMN analysis of short peptides in small intestine contents and serum after oral DHG
Conditions: small intestine contents, C57 mice, FBMN feature intensity, peptides smaller than 690 Da; for Peptide signal (feature intensity) in the small intestine, 30 min: 30 min after oral DHG; for Peptide signal (feature intensity) in the small intestine, 60 min: 60 min after oral DHG; for Peptide signal (feature intensity) in the small intestine, 120 min: 120 min after oral DHG; for Peptide signal (feature intensity) in the small intestine, 240 min: 240 min after oral DHG

Structure (SMILES) | Peptide signal (feature intensity) in the small intestine, 30 min | Peptide signal (feature intensity) in the small intestine, 60 min | Peptide signal (feature intensity) in the small intestine, 120 min | Peptide signal (feature intensity) in the small intestine, 240 min
CC[C@H](C)[C@H](N)C(=O)N[C@@H](Cc1ccc(O)cc1)C(=O)O [Ile-Tyr] (H-Ile-Tyr-OH) | 4.20E+05 | 8.21E+05 | 0.00E+00 | 0.00E+00
CCCC[C@H](NC(=O)[C@H](C)N)C(=O)O [L-Alanyl-L-norleucine] (HELM PEPTIDE1{A.[Nle]}$$$$V2.0) | 1.73E+05 | 0.00E+00 | 2.05E+05 | 1.49E+05
CC(C)C[C@H](N)C(=O)N[C@@H](CCC(=O)O)C(=O)N[C@@H](CCCCN)C(=O)O [Leu-Glu-Lys] (H-Leu-Glu-Lys-OH) | 0.00E+00 | 4.20E+05 | 0.00E+00 | 9.49E+05
CC(C)C[C@H](N)C(=O)N[C@@H](CCC(=O)O)C(=O)O [Leu-Glu] (H-Leu-Glu-OH) | 7.88E+06 | 7.70E+06 | 0.00E+00 | 0.00E+00
CC(C)C[C@H](NC(=O)CNC(=O)[C@@H](N)CC(C)C)C(=O)O [Leu-Gly-Leu] (H-Leu-Gly-Leu-OH) | 2.40E+06 | 6.61E+05 | 0.00E+00 | 4.40E+06
CC(C)CC(N)C(=O)NC(Cc1ccccc1)C(=O)O (stereo not drawn) [Leu-Phe] (H-Leu-Phe-OH; configuration not given here) | 6.52E+05 | 9.44E+05 | 8.51E+05 | 0.00E+00
CC(C)C[C@H](N)C(=O)N[C@H](C(=O)N[C@@H](CCCCN)C(=O)O)C(C)C [Leu-Val-Lys] (H-Leu-Val-Lys-OH) | 0.00E+00 | 3.40E+05 | 8.97E+05 | 2.22E+06
CC(C)CC(N)C(=O)NC(C(=O)O)C(C)C (stereo not drawn) [Leu-Val] (H-Leu-Val-OH; configuration not given here) | 4.22E+06 | 7.59E+06 | 0.00E+00 | 0.00E+00
CC(C)C[C@H](N)C(=O)N[C@@H](C)C(=O)O [Leu-ala] (H-Leu-Ala-OH) | 1.85E+06 | 1.64E+06 | 0.00E+00 | 0.00E+00
CSCCC(N)C(=O)NC(CC(C)C)C(=O)O (stereo not drawn) [Met-Leu] (H-Met-Leu-OH; configuration not given here) | 0.00E+00 | 0.00E+00 | 4.03E+05 | 3.59E+05
